Read-outs that look alike come from different tables or passages of the source.

Broadly, the IC50 is the concentration at which inhibition is half-maximal.

The target of one assay is SREBP-2 (Homo sapiens (Human), UniProt Q12772). As to the kind of experiment: In vitro assay SREBP-2: PathHunter U2OS SREBP-2 Nuclear Translocation Cell Line, U18666A-stimulated. The assay is classed as cell-based.
In the next assay the target is LXRβ (Homo sapiens (Human), UniProt P55055). Briefly: In vitro assay LXRβ: PathHunter NHR CHO cells, LXRβ / Steroid Receptor Co-activator Peptide enzyme fragment complementation. The assay is classed as cell-based. In outline: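 Co-activator recruitment measured by chemiluminescence after signal generation. The CHO line carries full-length human LXRβ tagged with ProLink and an SRCP–enzyme acceptor fusion in the nucleus; cells sat overnight at 37° C before testing, in charcoal-dextran filtered serum medium with 1% final vehicle.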
Sequence of LXRβ (P55055 whole entry, the tested form may be a part): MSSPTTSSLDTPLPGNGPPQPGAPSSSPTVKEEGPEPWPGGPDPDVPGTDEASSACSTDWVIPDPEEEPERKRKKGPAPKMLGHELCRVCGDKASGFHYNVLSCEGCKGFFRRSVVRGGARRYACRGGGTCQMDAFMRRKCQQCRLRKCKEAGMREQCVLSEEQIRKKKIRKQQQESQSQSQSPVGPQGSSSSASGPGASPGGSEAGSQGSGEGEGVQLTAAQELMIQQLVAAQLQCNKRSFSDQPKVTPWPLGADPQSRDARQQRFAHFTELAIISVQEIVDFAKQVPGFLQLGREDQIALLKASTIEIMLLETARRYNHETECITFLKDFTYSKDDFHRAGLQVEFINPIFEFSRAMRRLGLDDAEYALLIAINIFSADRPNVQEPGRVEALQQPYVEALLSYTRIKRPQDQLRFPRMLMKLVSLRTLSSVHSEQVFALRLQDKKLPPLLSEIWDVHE

Setting [1] is: PathHunter U2OS SREBP-2 nuclear translocation cells, U18666A 10 μM, overnight (16 hours).
[2] abbreviates: PathHunter NHR CHO cells, full-length human LXRβ and SRCP, chemiluminescent signal, read-out: LXRβ PPI.

Consider `COc1cc(N2CCN(C(=O)CC[C@@H](C)[C@H]3CC[C@H]4[C@@H]5CC=C6C[C@@H](O)CC[C@]6(C)[C@H]5CC[C@]34C)CC2)ncn1` [Example 203, (4R)-4-[(1R,3aS,3bS,7S,9aR,9bS,11aR)-7-hydroxy-9a,11a-dimethyl-1H,2H,3H,3aH,3bH,4H,6H,7H,8H,9H,9aH,9bH,10H,11H,11aH-cyclopenta[a]phenanthren-1-yl]-1-[4-(6-methoxypyrimidin-4-yl)piperazin-1-yl]pentan-1-one], for which the IC50 on SREBP-2 (setting [1]) was less than 250 nM. Also, the EC50 at LXRβ (setting [2]) is more than 10000 nM.

In turn, `CC(=O)N1C[C@@H]2CN(C(=O)CC[C@@H](C)[C@H]3CC[C@H]4[C@@H]5CC=C6C[C@@H](O)CC[C@]6(C)[C@H]5CC[C@]34C)C[C@@H]2C1` [Example 318, (4R)-1-[(3aR,6aS)-5-acetyl-octahydropyrrolo[3,4-c]pyrrol-2-yl]-4-[(1R,3aS,3bS,7S,9aR,9bS,11aR)-7-hydroxy-9a,11a-dimethyl-1H,2H,3H,3aH,3bH,4H,6H,7H,8H,9H,9aH,9bH,10H,11H,11aH-cyclopenta[a]phenanthren-1-yl]pentan-1-one] showed an IC50 against SREBP-2 (setting [1]) of 250 to 1000 nM. Moreover, the EC50 on LXRβ (setting [2]) was more than 10000 nM.

Regarding `C[C@H](CCC(=O)N1CC(C(O)(C(F)(F)F)C(F)(F)F)C1)[C@H]1CC[C@H]2[C@@H]3CC=C4C[C@@H](O)CC[C@]4(C)[C@H]3CC[C@]12C` [Example 97, (R)-1-(3-(1,1,1,3,3,3-hexafluoro-2-hydroxypropan-2-yl)azetidin-1-yl)-4-((3S,8S,9S,10R,13R,14S,17R)-3-hydroxy-10,13-dimethyl-2,3,4,7,8,9,10,11,12,13,14,15,16,17-tetradecahydro-1H-cyclopenta[a]phenanthren-17-yl) pentan-1-one], the IC50 against SREBP-2 (setting [1]) was less than 250 nM. The EC50 on LXRβ (setting [2]) was more than 10000 nM.

Regarding `CC[C@]1(O)CC[C@@]2(C)C(=CC[C@H]3[C@@H]4CC[C@H]([C@H](C)CCC(=O)N5CCN(C(=O)OC)CC5)[C@@]4(C)CC[C@@H]32)C1` [Example 420, Methyl 4-[(4R)-4-[(1R,3aS,3bS,7S,9aR,9bS,11aR)-7-ethyl-7-hydroxy-9a,11a-dimethyl-1H,2H,3H,3aH,3bH,4H,6H,7H,8H,9H,9aH,9bH,10H,11H,11aH-cyclopenta[a]phenanthren-1-yl]pentanoyl]piperazine-1-carboxylate], the IC50 on SREBP-2 (setting [1]) is less than 250 nM. The EC50 on LXRβ (setting [2]) is more than 10000 nM.

Molecule `C[C@H](CCC(=O)N(C)C1CCN(C(=O)C2CC2)CC1)[C@H]1CC[C@H]2[C@@H]3CC=C4C[C@@H](O)CC[C@]4(C)[C@H]3CC[C@]12C` [Example 642, (R)—N-(1-(cyclopropanecarbonyl)piperidin-4-yl)-4-((3S,8S,9S,10R,13R,14S,17R)-3-hydroxy-10,13-dimethyl-2,3,4,7,8,9,10,11,12,13,14,15,16,17-tetradecahydro-1H-cyclopenta[a]phenanthren-17-yl)-N-methylpentanamide] gave a concentration for half-maximal inhibition (IC50) against SREBP-2 (setting [1]) of less than 250 nM. Also, the EC50 on LXRβ (setting [2]) is more than 10000 nM.

As to `C[C@H](CCC(=O)N1CCN(c2ccncc2)CC1)[C@H]1CC[C@H]2[C@@H]3CC=C4C[C@@H](O)CC[C@]4(C)[C@H]3CC[C@]12C` [Example 396, (R)-4-((3S,8S,9S,10R,13R,14S,17R)-3-hydroxy-10,13-dimethyl-2,3,4,7,8,9,10,11,12,13,14,15,16,17-tetradecahydro-1H-cyclopenta[a]phenanthren-17-yl)-1-(4-(pyridin-4-yl)piperazin-1-yl)pentan-1-one], the IC50 on SREBP-2 (setting [1]) was less than 250 nM. The EC50 at LXRβ (setting [2]) was more than 10000 nM.

In turn, `C[C@H](CCC(=O)N(C)CCc1nccs1)[C@H]1CC[C@H]2[C@@H]3CC=C4C[C@@H](O)CC[C@]4(C)[C@H]3CC[C@]12C` [Example 545, (R)-4-((3S,8S,9S,10R,13R,14S,17R)-3-hydroxy-10,13-dimethyl-2,3,4,7,8,9,10,11,12,13,14,15,16,17-tetradecahydro-1H-cyclopenta[a]phenanthren-17-yl)-N-methyl-N-(2-(thiazol-2-yl)ethyl)pentanamide] showed an IC50 against SREBP-2 (setting [1]) of 250 to 1000 nM. In addition, the EC50 at LXRβ (setting [2]) was 250 to 1000 nM.

With `C[C@H](Oc1cccnc1)[C@H]1CC[C@H]2[C@@H]3CC=C4C[C@@H](O)CC[C@]4(C)[C@H]3CC[C@]12C` [Example 380, (3S,8S,9S,10R,13S,14S,17S)-10,13-dimethyl-17-((S)-1-(pyridin-3-yloxy)ethyl)-2,3,4,7,8,9,10,11,12,13,14,15,16,17-tetradecahydro-1H-cyclopenta[a]phenanthren-3-ol], the IC50 at SREBP-2 (setting [1]) was less than 250 nM. The EC50 at LXRβ (setting [2]) is more than 10000 nM.

As to `C[C@H](CCC(=O)N1CCN(C(=O)c2cccnc2)CC1)[C@H]1CC[C@H]2[C@@H]3CC=C4C[C@@H](O)CC[C@]4(C)[C@H]3CC[C@]12C` [Example 313, (4R)-4-[(1R,3aS,3bS,7S,9aR,9bS,11aR)-7-hydroxy-9a,11a-dimethyl-1H,2H,3H,3aH,3bH,4H,6H,7H,8H,9H,9aH,9bH,10H,11H,11aH-cyclopenta[a]phenanthren-1-yl]-1-[4-(pyridine-3-carbonyl)piperazin-1-yl]pentan-1-one], the half-maximal inhibitory concentration (IC50) at SREBP-2 was less than 250 nM. This molecule had an EC50 on LXRβ of more than 10000 nM.

As for `C[C@H](CCC(=O)N1CCN(C(=O)NC2CC2)CC1)[C@H]1CC[C@H]2[C@@H]3CC=C4C[C@@H](O)CC[C@]4(C)[C@H]3CC[C@]12C` [Example 338, 4-[(4R)-4-[(1R,3aS,3bS,7S,9aR,9bS,11aR)-7-hydroxy-9a,11a-dimethyl-1H,2H,3H,3aH,3bH,4H,6H,7H,8H,9H,9aH,9bH,10H,11H,11aH-cyclopenta[a]phenanthren-1-yl]pentanoyl]-N-cyclopropylpiperazine-1-carboxamide], at SREBP-2 (setting [1]), the IC50 is less than 250 nM. In addition, on LXRβ (setting [2]), the EC50 is more than 10000 nM.

As to `Cc1cccc(OC[C@@H](C)[C@H]2CC[C@H]3[C@@H]4CC=C5C[C@@H](O)CC[C@]5(C)[C@H]4CC[C@]23C)n1` [Example 264, (1R,3aS,3bS,7S,9aR,9bS,11aS)-9a,11a-dimethyl-1-[(2S)-1-[(6-methylpyridin-2-yl)oxy]propan-2-yl]-1H,2H,3H,3aH,3bH,4H,6H,7H,8H,9H,9aH,9bH,10H,11H,11aH-cyclopenta[a]phenanthren-7-ol], the IC50 on SREBP-2 (setting [1]) is 250 to 1000 nM. Moreover, the EC50 at LXRβ (setting [2]) was more than 10000 nM.

At SREBP-2 (setting [1]), `C[C@H](CCc1cccnn1)[C@H]1CC[C@H]2[C@@H]3CC=C4C[C@@H](O)CC[C@]4(C)[C@H]3CC[C@]12C` [Example 134, (1R,3aS,3bS,7S,9aR,9bS,11aR)-9a,11a-dimethyl-1-[(2R)-4-(pyridazin-3-yl)butan-2-yl]-1H,2H,3H,3aH,3bH,4H,6H,7H,8H,9H,9aH,9bH,10H,11H,11aH-cyclopenta[a]phenanthren-7-ol] showed an IC50 of more than 10000 nM. Also, the EC50 at LXRβ (setting [2]) was 250 to 1000 nM.

Turning to `C[C@H](CCC(=O)N(C)c1ccncc1)[C@H]1CC[C@H]2[C@@H]3CC=C4C[C@@H](O)CC[C@]4(C)[C@H]3CC[C@]12C` [Example 639, (R)-4-((3S,8S,9S,10R,13R,14S,17R)-3-hydroxy-10,13-dimethyl-2,3,4,7,8,9,10,11,12,13,14,15,16,17-tetradecahydro-1H-cyclopenta[a]phenanthren-17-yl)-N-methyl-N-(pyridin-4-yl)pentanamide], the IC50 on SREBP-2 (setting [1]) lay within 250 to 1000 nM. For the same molecule, at LXRβ (setting [2]), the EC50 was more than 10000 nM.

The values are drawn from US20230340011A1 (Asteroid Therapeutics, priority 2022, published 2023).
